Experimental data reported in patent US7238775B2, “Receptor(SSTR4)-selective somatostatin analogs” (The Salk Institute for Biological Studies, priority 2002, dated 2007).
“And” between values parts separate entries of the source, which are not always exact repeats. Equal entries are not always repeated. Bridge positions count the residues as written; N and C are the ends. Peptide text beside a SMILES is read from it.

How the values were obtained:
Test in all cases: Displacement of 125I-[Leu8,D-Trp22,Tyr25]SRIF-28 from cloned receptor, membrane pellet autoradiography
Type in all cases: binding
hSSTR1 = target: T1, hSSTR1 (Homo sapiens, UniProt P30872)
T1 construct: expressed in transfected cells; host or cells: CHO-K1 cells and CCL39 cells
T1 sequence (P30872 whole entry): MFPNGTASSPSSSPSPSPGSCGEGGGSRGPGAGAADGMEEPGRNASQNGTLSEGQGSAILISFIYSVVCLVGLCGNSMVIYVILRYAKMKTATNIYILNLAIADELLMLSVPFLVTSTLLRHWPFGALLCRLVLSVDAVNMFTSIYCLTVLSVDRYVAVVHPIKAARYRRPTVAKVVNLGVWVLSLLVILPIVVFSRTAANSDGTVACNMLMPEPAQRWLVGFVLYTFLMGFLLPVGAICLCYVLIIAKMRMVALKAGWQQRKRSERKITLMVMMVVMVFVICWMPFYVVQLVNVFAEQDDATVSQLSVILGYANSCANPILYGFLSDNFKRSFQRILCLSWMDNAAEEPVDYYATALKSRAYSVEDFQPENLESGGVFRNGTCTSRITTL
Experimental: (§1) In vitro Bioassay: The effects of the various somatostatin analogs are tested in vitro for their ability to bind to isolated cloned receptors expressed on CHO-K1 cells and CCL39 cells. CHO-K1 cells are grown in Ham's F-12 medium, and CCL39 cells are grown in Dulbecco's modified Eagle's medium/Ham's F-12(1:1) mix, supplemented with 10% fetal bovine serum, 100 U/ml penicillin and 100 μg/ml streptomycin, in humidified air containing 5% CO2 at 37° C.
(§2) Cells are washed twice with and scraped into ice-cold 0.05 M Tris-HCl (pH 7.4), collected by centrifugation, and homogenized using a rotor/stator/system in the same buffer. After centrifugation at 120 g for 5 min at 4° C., the supernatant is collected and centrifuged again at 48,000 g for 30 min at 4° C. The resulting pellet is resuspended in ice-cold Tris buffer, transferred into a microfuge tube, and centrifuged at 20,000 g for 15 min at 4° C. After withdrawal of the supernatant, the membrane pellet is stored at −80° C.
Receptor autoradiography is performed on 20 μm thick cryostat sections of the membrane pellets, mounted on microscope slides, and then stored at −20° C. […] […] […] IC50 values are calculated after quantification of the data using a computer-assisted image processing system as known in this art.
(§3) The numbers in parentheses indicate the number of times the particular binding test was carried out.

hSSTR2 = target: T2, hSSTR2 (Homo sapiens, UniProt P30874)
T2 construct: expressed in transfected cells; host or cells: CHO-K1 cells and CCL39 cells
T2 sequence (P30874 whole entry): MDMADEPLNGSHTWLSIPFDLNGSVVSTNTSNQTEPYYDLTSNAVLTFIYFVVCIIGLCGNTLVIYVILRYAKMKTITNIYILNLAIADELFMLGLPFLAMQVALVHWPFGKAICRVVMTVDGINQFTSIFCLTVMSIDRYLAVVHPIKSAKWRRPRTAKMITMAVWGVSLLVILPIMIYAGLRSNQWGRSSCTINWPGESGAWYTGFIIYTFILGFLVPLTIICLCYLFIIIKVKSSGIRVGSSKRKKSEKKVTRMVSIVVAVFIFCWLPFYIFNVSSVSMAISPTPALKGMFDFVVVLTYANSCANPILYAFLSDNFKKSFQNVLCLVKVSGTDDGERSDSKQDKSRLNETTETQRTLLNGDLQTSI
Experimental: as §1, §2
(§4) Receptor autoradiography is performed on 20 μm thick cryostat sections of the membrane pellets, mounted on microscope slides, and then stored at −20° C. […] Increasing concentrations of the unlabeled peptide are used ranging from 0.1-1000 nM. […] IC50 values are calculated after quantification of the data using a computer-assisted image processing system as known in this art.
as §3

hSSTR3 = target: T3, hSSTR3 (Homo sapiens, UniProt P32745)
T3 construct: expressed in transfected cells; host or cells: CHO-K1 cells and CCL39 cells
T3 sequence (P32745 whole entry): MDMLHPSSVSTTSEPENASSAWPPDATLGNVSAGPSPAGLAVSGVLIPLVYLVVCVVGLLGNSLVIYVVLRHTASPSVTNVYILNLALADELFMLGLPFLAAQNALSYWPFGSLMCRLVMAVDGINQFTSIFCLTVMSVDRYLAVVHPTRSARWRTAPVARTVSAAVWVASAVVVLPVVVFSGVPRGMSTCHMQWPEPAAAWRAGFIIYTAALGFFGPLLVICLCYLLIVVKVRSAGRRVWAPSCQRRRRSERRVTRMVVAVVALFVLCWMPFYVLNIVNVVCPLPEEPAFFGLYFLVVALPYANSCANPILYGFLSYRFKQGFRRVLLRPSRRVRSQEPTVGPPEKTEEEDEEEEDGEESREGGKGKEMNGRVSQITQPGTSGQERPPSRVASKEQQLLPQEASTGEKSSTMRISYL
Experimental: as §1, §2, §4, §3

hSSTR4 = target: T4, hSSTR4 (Homo sapiens, UniProt P31391); conditions: for IC50: inhibition of 125I-SRIF-28 radioligand binding, cloned human receptor
T4 construct: expressed in transfected cells; host or cells: CHO-K1 cells and CCL39 cells
T4 sequence (P31391 whole entry): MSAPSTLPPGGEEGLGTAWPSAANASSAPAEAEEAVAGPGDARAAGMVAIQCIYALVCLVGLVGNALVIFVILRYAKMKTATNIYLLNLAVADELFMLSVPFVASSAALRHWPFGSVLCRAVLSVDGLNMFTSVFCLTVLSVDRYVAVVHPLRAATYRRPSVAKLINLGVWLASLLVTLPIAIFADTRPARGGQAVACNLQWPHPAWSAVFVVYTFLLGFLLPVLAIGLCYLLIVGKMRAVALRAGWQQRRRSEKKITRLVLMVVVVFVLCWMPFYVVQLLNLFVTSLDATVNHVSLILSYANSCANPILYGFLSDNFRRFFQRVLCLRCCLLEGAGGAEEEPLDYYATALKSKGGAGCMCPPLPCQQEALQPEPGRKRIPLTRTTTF
Experimental: as §1, §2, §4, §3

hSSTR5 = target: T5, hSSTR5 (Homo sapiens, UniProt P35346)
T5 construct: expressed in transfected cells; host or cells: CHO-K1 cells and CCL39 cells
T5 sequence (P35346 whole entry): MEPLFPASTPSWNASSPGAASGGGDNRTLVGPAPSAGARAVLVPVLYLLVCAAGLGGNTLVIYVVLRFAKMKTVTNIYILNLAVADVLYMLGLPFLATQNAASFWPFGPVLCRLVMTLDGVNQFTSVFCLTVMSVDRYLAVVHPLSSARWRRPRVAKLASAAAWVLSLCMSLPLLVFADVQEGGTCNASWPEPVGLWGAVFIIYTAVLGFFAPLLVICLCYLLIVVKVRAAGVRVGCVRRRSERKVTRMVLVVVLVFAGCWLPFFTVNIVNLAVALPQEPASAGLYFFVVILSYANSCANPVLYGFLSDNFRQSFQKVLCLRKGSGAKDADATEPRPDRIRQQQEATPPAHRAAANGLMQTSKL
Experimental: as §1, §2, §4, §3

SMILES | effect on binding of the SRIF-28 radioligand to human SSTR1 (hSSTR1; at 100 nM) | effect on binding of the SRIF-28 radioligand to human SSTR2 (hSSTR2; at 100 nM) | effect on binding of the SRIF-28 radioligand to SSTR3 (hSSTR3; at 100 nM) | selectivity in binding to SSTR4 compared with the other 4 receptors (in words) (hSSTR4) | IC50 (hSSTR4) | effect on binding of the SRIF-28 radioligand to SSTR5 (hSSTR5; at 100 nM) | IC50 (hSSTR5; inhibition of 125I-SRIF-28 radioligand binding, cloned human receptor) | concentration below which it does not bind to human SSTR1 (hSSTR1) | concentration below which it does not bind to human SSTR2 (hSSTR2) | concentration below which it does not bind to human SSTR3 (hSSTR3) | concentration below which it does not bind to human SSTR5 (hSSTR5)
C[C@@H](O)[C@@H]1NC(=O)[C@H](CCCCN)NC(=O)[C@H](Cc2c[nH]c3ccccc23)NC(=O)[C@H](Cc2ccc(N)cc2)NC(=O)[C@H](Cc2ccccc2)NC(=O)[C@@H](N)CSSC[C@@H](C(=O)O)NC(=O)[C@H](Cc2ccccc2)NC1=O [Peptide No. 1, (cyclo)H-Cys-Phe-4Aph-Trp-Lys-Thr-Phe-Cys-OH] | minimal effects | minimal effects | very minimal effect | selectively bound to SSTR4 | ~1.2 nM and 1.2 nM | very minimal effect | 1000 nM | – | – | – | –
C[C@@H]1NC(=O)[C@H](Cc2ccccc2)NC(=O)[C@@H](N)CSSC[C@@H](C(=O)O)NC(=O)[C@H](Cc2ccccc2)NC(=O)[C@H]([C@@H](C)O)NC(=O)[C@H](CCCCN)NC(=O)[C@H](Cc2c[nH]c3ccccc23)NC1=O [Peptide No. 12] (H-CFAWKTFC-OH; disulfide 1-8) | – | – | – | likewise selective | ~0.84 nM and 0.84 nM | – | – | ≥ 750 nM | ≥ 750 nM | ≥ 750 nM | ≥ 630 nM
